The data set is described as follows: Stability of intravenous stock solution. Type of data set: physicochemical. As to conditions: stock solution 10 mg/mL in phosphate buffered saline adjusted to pH about 7.4 with NaOH; at 40 C. The protocol: Preparation Procedures: An intravenous formulation will be made as a stock solution (10 mg/mL) one day prior to the start of dosing consisting of phosphate buffered saline adjusted to pH about 7.4 with NaOH. The dosing formulations will be prepared on the day of dosing by diluting the appropriate amount of the stock solution with D5W to obtain concentrations of 3.14 mg/mL of Compound 3 and then will be sterile filtered using a 0.20 micron filter about few hours prior to the start of dosing. The test formulation was stored at approximately 4° C. protected from light. The vehicle used for IV introduction was phosphate buffered saline consisting of 0.0144% (w/v) of KH2PO4, 0.90% (w/v) of NaCL, 0.0795% (w/v) of Na2HPO4, 0.325% of NaOH (1N) and […] sterile water for injection with the resulting pH of approximately 7.4. The stock solution (10 mg/mL) is stable for 7 days at 40 C.

In the case of `N#Cc1cc(-c2ccc(OP(=O)(O)O)c(F)c2)cc2ccc(OP(=O)(O)O)cc12` [Compound 3], the “Time over which stock solution is stable” value is recorded as 7 days.

For the origin of these results see US7649018B2, “Mono- and di-phosphates of 3-(3-fluoro-4-hydroxy-phenyl)-7-hydroxy-naphthalene-1-carbonitrile” (Wyeth LLC, priority 2007, dated 2010).
